pIC50: −log10 of the molar value. Activity calls are given as the source filed them. The rule behind the calls is not given here. Some results are limits rather than exact numbers.

The values below come from ChEMBL document CHEMBL4270514, “Design, synthesis and biological evaluation of novel xanthine oxidase inhibitors bearing a 2-arylbenzo[b]furan scaffold” (Eur J Med Chem, 2018).

Test system in the first data set: not listed separately
Put plainly: Antioxidant activity assessed as DPPH radical scavenging activity after 30 mins by spectrophotometric analysis. It counts as functional.
Conditions: not given
(In general: Loss of DPPH colour is used to gauge radical scavenging.)
Turning to `COc1ccc(NC(=O)/C=C/c2ccc(O)c3oc(-c4ccc(O)c(O)c4)cc23)cc1`, the pIC50 (usually the negative decadic logarithm of the IC50, by convention in mol/L) was 4.68 to 5.18.

Consider `O=C(/C=C/c1ccc(O)c2oc(-c3ccc(O)c(O)c3)cc12)Nc1ccc(F)cc1`, for which the pIC50 is 4.68 to 5.18.

On to `O=C(/C=C/c1ccc(O)c2oc(-c3ccc(O)c(O)c3)cc12)Nc1ccc(Cl)cc1`, for which the pIC50 was 4.68 to 5.18.

With `CCCOC(=O)/C=C/c1ccc(O)c2oc(-c3ccc(O)c(O)c3)cc12`, the pIC50 is 4.68 to 5.18.

Take `CC(C)(C)NC(=O)/C=C/c1ccc(O)c2oc(-c3ccc(O)c(O)c3)cc12`: the pIC50 was 4.68 to 5.18.

For `O=C(/C=C/c1ccc(O)c2oc(-c3ccc(O)c(O)c3)cc12)NCc1ccccc1`, the pIC50 is 4.68 to 5.18.

Regarding `CCOC(=O)/C=C/c1ccc(O)c2oc(-c3ccc(O)c(O)c3)cc12`, the pIC50 was 4.68 to 5.18.

For `CC(C)NC(=O)/C=C/c1ccc(O)c2oc(-c3ccc(O)c(O)c3)cc12`, the pIC50 was 4.68 to 5.18.

`O=C(/C=C/c1ccc(O)c2oc(-c3ccc(O)c(O)c3)cc12)Nc1ccc(Br)cc1`: the pIC50 was 4.68 to 5.18.

Consider `Cc1ccc(NC(=O)/C=C/c2ccc(O)c3oc(-c4ccc(O)c(O)c4)cc23)cc1`, for which the pIC50 is 4.68 to 5.18.

On to `O=C(/C=C/c1ccc(O)c2oc(-c3ccc(O)c(O)c3)cc12)N1CCCCC1`, for which the pIC50 was 4.68 to 5.18.

For `COC(=O)/C=C/c1ccc(O)c2oc(-c3ccc(O)c(O)c3)cc12`, the pIC50 was 4.68 to 5.18.

In the case of `C=CCNC(=O)CCc1ccc(O)c2oc(-c3ccc(O)c(O)c3)cc12`, the pIC50 is 4.68 to 5.18.

A further data set has as its system RAW264.7. Put plainly: Inhibition of LPS-induced ROS generation in mouse RAW264.7 cells at 10 uM after 24 hrs by H2DCFH staining-based fluorescence assay.
Conditions: not given
It counts as functional, cell-based.
As for `CCCOC(=O)/C=C/c1ccc(O)c2oc(-c3ccc(O)c(O)c3)cc12`, the inhibition result is “Active”.

With `O=C(/C=C/c1ccc(O)c2oc(-c3ccc(O)c(O)c3)cc12)NCc1ccccc1`, the inhibition entry is “Active”.

The target of another data set is Xanthine dehydrogenase/oxidase (Bos taurus, UniProt P80457). Description: Inhibition of bovine xanthine oxidase using xanthine as substrate preincubated for 3 mins followed by substrate addition and measured for every 15 secs for 7 mins by spectrophotometric analysis.
Chain of Xanthine dehydrogenase/oxidase (P80457 whole entry): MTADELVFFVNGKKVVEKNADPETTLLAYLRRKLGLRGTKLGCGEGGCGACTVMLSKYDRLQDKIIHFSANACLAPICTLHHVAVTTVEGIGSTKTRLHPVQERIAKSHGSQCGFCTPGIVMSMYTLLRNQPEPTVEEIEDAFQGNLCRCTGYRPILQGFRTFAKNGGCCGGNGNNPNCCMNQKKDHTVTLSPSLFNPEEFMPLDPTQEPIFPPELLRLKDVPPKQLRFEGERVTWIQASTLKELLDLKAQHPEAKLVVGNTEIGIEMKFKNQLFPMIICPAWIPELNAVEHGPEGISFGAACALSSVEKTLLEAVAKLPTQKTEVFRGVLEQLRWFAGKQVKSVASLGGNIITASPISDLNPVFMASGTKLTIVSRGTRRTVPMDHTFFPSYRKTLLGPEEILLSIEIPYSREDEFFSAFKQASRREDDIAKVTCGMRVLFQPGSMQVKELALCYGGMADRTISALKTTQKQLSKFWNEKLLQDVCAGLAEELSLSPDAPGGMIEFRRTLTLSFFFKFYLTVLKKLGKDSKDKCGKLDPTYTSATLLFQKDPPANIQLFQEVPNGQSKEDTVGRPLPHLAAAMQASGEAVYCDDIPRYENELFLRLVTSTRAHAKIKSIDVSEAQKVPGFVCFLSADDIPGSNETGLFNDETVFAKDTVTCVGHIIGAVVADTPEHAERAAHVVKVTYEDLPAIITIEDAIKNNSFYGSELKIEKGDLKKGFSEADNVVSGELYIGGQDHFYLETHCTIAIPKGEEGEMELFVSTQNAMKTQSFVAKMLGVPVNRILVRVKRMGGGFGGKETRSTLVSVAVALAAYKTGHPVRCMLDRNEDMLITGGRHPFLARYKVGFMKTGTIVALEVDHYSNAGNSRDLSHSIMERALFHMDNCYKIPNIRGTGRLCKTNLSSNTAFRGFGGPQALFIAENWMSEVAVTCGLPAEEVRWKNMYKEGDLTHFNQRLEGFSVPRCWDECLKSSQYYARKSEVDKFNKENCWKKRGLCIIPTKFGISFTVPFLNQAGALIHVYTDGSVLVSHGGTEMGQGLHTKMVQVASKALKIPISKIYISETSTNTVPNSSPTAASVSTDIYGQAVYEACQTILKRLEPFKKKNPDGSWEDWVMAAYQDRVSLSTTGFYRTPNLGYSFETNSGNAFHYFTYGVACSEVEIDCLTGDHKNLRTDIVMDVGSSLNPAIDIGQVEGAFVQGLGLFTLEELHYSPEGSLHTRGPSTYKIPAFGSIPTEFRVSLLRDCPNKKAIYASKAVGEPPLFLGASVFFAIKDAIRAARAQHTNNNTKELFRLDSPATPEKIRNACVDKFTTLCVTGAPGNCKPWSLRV
Conditions: not given
Turning to `COc1ccc(NC(=O)/C=C/c2ccc(O)c3oc(-c4ccc(O)c(O)c4)cc23)cc1`, the pIC50 was 4.37.

For `O=C(/C=C/c1ccc(O)c2oc(-c3ccc(O)c(O)c3)cc12)Nc1ccc(F)cc1`, the pIC50 was 4.08.

In turn, `O=C(O)/C=C/c1ccc(O)c2oc(-c3ccc(O)c(O)c3)cc12` [TOURNEFOLIC ACID A] showed a pIC50 of 4.79.

As to `O=C(/C=C/c1ccc(O)c2oc(-c3ccc(O)c(O)c3)cc12)Nc1ccc(Cl)cc1`, the pIC50 was less than 4.00.

Take `CCCOC(=O)/C=C/c1ccc(O)c2oc(-c3ccc(O)c(O)c3)cc12`: the pIC50 is 4.71.

Consider `CC(C)(C)NC(=O)/C=C/c1ccc(O)c2oc(-c3ccc(O)c(O)c3)cc12`, for which the pIC50 was 4.35.

`O=C(/C=C/c1ccc(O)c2oc(-c3ccc(O)c(O)c3)cc12)NCc1ccccc1` showed a pIC50 of 4.81.

`CCOC(=O)/C=C/c1ccc(O)c2oc(-c3ccc(O)c(O)c3)cc12` gave a pIC50 of 4.81.

Regarding `CC(C)NC(=O)/C=C/c1ccc(O)c2oc(-c3ccc(O)c(O)c3)cc12`, the pIC50 was 4.86.

The compound `O=C(/C=C/c1ccc(O)c2oc(-c3ccc(O)c(O)c3)cc12)Nc1ccc(Br)cc1` gave a negative logarithm of the IC50 (pIC50) of less than 4.00.

Take `Cc1ccc(NC(=O)/C=C/c2ccc(O)c3oc(-c4ccc(O)c(O)c4)cc23)cc1`: the pIC50 was 4.29.

Turning to `O=C(/C=C/c1ccc(O)c2oc(-c3ccc(O)c(O)c3)cc12)N1CCCCC1`, the pIC50 is 4.67.

`COC(=O)/C=C/c1ccc(O)c2oc(-c3ccc(O)c(O)c3)cc12`: the pIC50 was 5.18.

With `C=CCNC(=O)CCc1ccc(O)c2oc(-c3ccc(O)c(O)c3)cc12`, the pIC50 is 4.33.

Test system in the next data set: not listed separately
Description: Cytotoxicity against mouse RAW264.7 cells assessed as effect on cell viability at 1 to 10 uM after 24 hrs by MTT assay relative to control. The class given is cell-based. As to conditions: read-out: Activity.
In the case of `COc1ccc(NC(=O)/C=C/c2ccc(O)c3oc(-c4ccc(O)c(O)c4)cc23)cc1`, the viability at 24 h, up to 10 µM was more than 85%.

Regarding `O=C(/C=C/c1ccc(O)c2oc(-c3ccc(O)c(O)c3)cc12)Nc1ccc(F)cc1`, the viability at 24 h, up to 10 µM was more than 85%.

Regarding `O=C(O)/C=C/c1ccc(O)c2oc(-c3ccc(O)c(O)c3)cc12` [TOURNEFOLIC ACID A], the viability at 24 h, up to 10 µM is more than 85%.

On to `O=C(/C=C/c1ccc(O)c2oc(-c3ccc(O)c(O)c3)cc12)Nc1ccc(Cl)cc1`, for which the viability at 24 h, up to 10 µM was more than 85%.

Turning to `CCCOC(=O)/C=C/c1ccc(O)c2oc(-c3ccc(O)c(O)c3)cc12`, the viability at 24 h, up to 10 µM is more than 85%.

`CC(C)(C)NC(=O)/C=C/c1ccc(O)c2oc(-c3ccc(O)c(O)c3)cc12`: the viability at 24 h, up to 10 µM is more than 85%.

With `O=C(/C=C/c1ccc(O)c2oc(-c3ccc(O)c(O)c3)cc12)NCc1ccccc1`, the viability at 24 h, up to 10 µM was more than 85%.

`CCOC(=O)/C=C/c1ccc(O)c2oc(-c3ccc(O)c(O)c3)cc12`: the viability at 24 h, up to 10 µM is more than 85%.

Consider `CC(C)NC(=O)/C=C/c1ccc(O)c2oc(-c3ccc(O)c(O)c3)cc12`, for which the viability at 24 h, up to 10 µM was more than 85%.

Consider `O=C(/C=C/c1ccc(O)c2oc(-c3ccc(O)c(O)c3)cc12)Nc1ccc(Br)cc1`, for which the viability at 24 h, up to 10 µM is more than 85%.

`Cc1ccc(NC(=O)/C=C/c2ccc(O)c3oc(-c4ccc(O)c(O)c4)cc23)cc1`: the viability at 24 h, up to 10 µM was more than 85%.

Consider `O=C(/C=C/c1ccc(O)c2oc(-c3ccc(O)c(O)c3)cc12)N1CCCCC1`, for which the viability at 24 h, up to 10 µM is more than 85%.

As for `COC(=O)/C=C/c1ccc(O)c2oc(-c3ccc(O)c(O)c3)cc12`, the viability at 24 h, up to 10 µM was more than 85%.

Regarding `C=CCNC(=O)CCc1ccc(O)c2oc(-c3ccc(O)c(O)c3)cc12`, the viability at 24 h, up to 10 µM was more than 85%.

Another data set concerns RAW264.7. Put plainly: Inhibition of LPS-induced ROS generation in mouse RAW264.7 cells after 24 hrs by H2DCFH staining-based fluorescence assay. The class given is functional, cell-based.
Conditions: not given
Regarding `COc1ccc(NC(=O)/C=C/c2ccc(O)c3oc(-c4ccc(O)c(O)c4)cc23)cc1`, the inhibition entry was “Dose-dependent effect”.

For the compound `O=C(/C=C/c1ccc(O)c2oc(-c3ccc(O)c(O)c3)cc12)Nc1ccc(F)cc1`, the inhibition result was “Dose-dependent effect”.

On to `O=C(O)/C=C/c1ccc(O)c2oc(-c3ccc(O)c(O)c3)cc12` [TOURNEFOLIC ACID A], for which the inhibition result is “Dose-dependent effect”.

On to `O=C(/C=C/c1ccc(O)c2oc(-c3ccc(O)c(O)c3)cc12)Nc1ccc(Cl)cc1`, for which the inhibition entry was “Dose-dependent effect”.

For `CC(C)(C)NC(=O)/C=C/c1ccc(O)c2oc(-c3ccc(O)c(O)c3)cc12`, the inhibition entry was “Dose-dependent effect”.

For the compound `CCOC(=O)/C=C/c1ccc(O)c2oc(-c3ccc(O)c(O)c3)cc12`, the inhibition result was “Dose-dependent effect”.

Consider `CC(C)NC(=O)/C=C/c1ccc(O)c2oc(-c3ccc(O)c(O)c3)cc12`, for which the inhibition result is “Dose-dependent effect”.

For the compound `O=C(/C=C/c1ccc(O)c2oc(-c3ccc(O)c(O)c3)cc12)Nc1ccc(Br)cc1`, the inhibition result is “Dose-dependent effect”.

As to `Cc1ccc(NC(=O)/C=C/c2ccc(O)c3oc(-c4ccc(O)c(O)c4)cc23)cc1`, the inhibition result is “Dose-dependent effect”.

In the case of `O=C(/C=C/c1ccc(O)c2oc(-c3ccc(O)c(O)c3)cc12)N1CCCCC1`, the inhibition entry was “Dose-dependent effect”.

In the case of `COC(=O)/C=C/c1ccc(O)c2oc(-c3ccc(O)c(O)c3)cc12`, the inhibition entry is “Dose-dependent effect”.
